Assays:
ORYSAT (Rice, Tebonnet) [1] = assay: Postemergence herbicidal evaluation; format: in vivo, Oryza sativa, (L.) Tebonnet; conditions: postemergence
Summary of the method: (§1)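 Seedlings grown for about two weeks were sprayed postemergence and then kept under standard greenhouse care. Injury was rated visually 4–5 weeks after treatment on a 0–9 scale against untreated controls, and ratings from repeat tests were averaged.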

[2] = system: ABUTH (Abutilon theophrasti); assay: Preemergence herbicidal evaluation; format: in vivo, Medic.; conditions: preemergence, rated 4-5 weeks after treatment
[3] = system: TRZAWR (Wheat, Winter, cv Riband); assay: Postemergence herbicidal evaluation; format: in vivo, Triticum aestivum; conditions: postemergence
Summary of the method: as §1

ZEAMX (Corn, Field) [4] = assay: Preemergence herbicidal evaluation; format: in vivo, Zea mays, L.; conditions: preemergence, rated 4-5 weeks after treatment
[5] = system: AMBEL (Ambrosia artemisifolia); assay: Postemergence herbicidal evaluation; format: in vivo, L.; conditions: postemergence
Summary of the method: as §1

[6] = system: CASOB (Cassia obtusifolia); assay: Postemergence herbicidal evaluation; format: in vivo, L.; conditions: postemergence
Summary of the method: as §1

[7] = system: CHEAL (Chenopodium album); assay: Postemergence herbicidal evaluation; format: in vivo, L.; conditions: postemergence
Summary of the method: as §1

GALAP (Galium aparine) [8] = assay: Postemergence herbicidal evaluation; format: in vivo; conditions: postemergence
Summary of the method: as §1

GLXMA (Soybean) = assay: Preemergence herbicidal evaluation; format: in vivo, Glycine max, (L.) Merr.; conditions: preemergence, rated 4-5 weeks after treatment
GALAP (Galium aparine) [9] = assay: Preemergence herbicidal evaluation; format: in vivo; conditions: preemergence, rated 4-5 weeks after treatment
Summary of the method: (§2)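 Each species was sown separately in potting soil over roughly one inch of soil, and the surface sprayed with compound dissolved in aqueous acetone. Assessment used a 0–9 visual scale against a control after four to five weeks.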

[10] = system: GLXMAW (Soybean, Williams); assay: Postemergence herbicidal evaluation; format: in vivo, Glycine max, (L.) Merr. cv Williams; conditions: postemergence
Summary of the method: as §1

CYPIR (Cyperus iria) = assay: Flooded paddy, preemergence weed control; format: in vivo; conditions: rated 3-4 weeks after treatment, 0-9 rating scale
Summary of the method: (§3)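 Preemergence, flooded: propagules planted at 0.5 cm depth in silt loam, water level maintained at 1.5 to 3 cm over soil, containers kept on greenhouse benches. Activity scored 0-9 by eye relative to a control plant.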

[11] = system: ECHCG (Echinochloa crus-galli); assay: Postemergence herbicidal evaluation; format: in vivo, (L.) Beau; conditions: postemergence
Summary of the method: as §1

[12] = system: SAGPY (Sagittaria pygmaea); assay: Flooded paddy, preemergence weed control; format: in vivo, L.; conditions: rated 3-4 weeks after treatment, 0-9 rating scale
Summary of the method: as §3

ZEAMX (Corn, Field) [13] = assay: Postemergence herbicidal evaluation; format: in vivo, Zea mays, L.; conditions: postemergence
Summary of the method: as §1

[14] = system: IPOHE (Ipomoea hederacea); assay: Preemergence herbicidal evaluation; format: in vivo, (L.) Jacq.; conditions: preemergence, rated 4-5 weeks after treatment
ORYSAT (Rice, Tebonnet) [15] = assay: Flooded paddy, post-transplant rice tolerance; format: in vivo, Oryza sativa, (L.) Tebonnet
Summary of the method: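 Visual 0-9 rating against a control, covering stand, vigor, malformation, size, chlorosis and overall appearance. Treatment was applied after transplanting paired ten-day-old seedlings into flooded silt loam, with water kept 1.5 to 3 cm deep on greenhouse benches.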

[16] = system: ECHCG (Echinochloa crus-galli); assay: Preemergence herbicidal evaluation; format: in vivo, (L.) Beau; conditions: preemergence, rated 4-5 weeks after treatment
Summary of the method: as §2

[17] = system: AMBEL (Ambrosia artemisifolia); assay: Preemergence herbicidal evaluation; format: in vivo, L.; conditions: preemergence, rated 4-5 weeks after treatment
Summary of the method: as §2

[18] = system: MOOVA (Monochoria vaginalis); assay: Flooded paddy, preemergence weed control; format: in vivo, Presl.; conditions: rated 3-4 weeks after treatment, 0-9 rating scale
Summary of the method: as §3

[19] = system: IPOHE (Ipomoea hederacea); assay: Postemergence herbicidal evaluation; format: in vivo, (L.) Jacq.; conditions: postemergence
Summary of the method: as §1

[20] = system: ABUTH (Abutilon theophrasti); assay: Postemergence herbicidal evaluation; format: in vivo, Medic.; conditions: postemergence
Summary of the method: as §1

[21] = system: ECHORC (Echinochloa oryzoides); assay: Flooded paddy, preemergence weed control; format: in vivo, Echinochloa oryzoides (Ard.) Fritsch.; conditions: rated 3-4 weeks after treatment, 0-9 rating scale
Summary of the method: as §3

1-methyl-3-[3-(4-oxo-delta-2-1,2,5-thiadiazolin-3-yl)-1,2-benzisothiazol-5-yl]-6-(trifluoromethyl)uracil S′,S′-dioxide [Compound 92]
ORYSAT herbicidal rating (ORYSAT (Rice, Tebonnet) [1]; rate 0.0320 kg/ha): 1.0
ORYSAT herbicidal rating (ORYSAT (Rice, Tebonnet) [1]; rate 0.0620 kg/ha): 1.0
ORYSAT herbicidal rating (ORYSAT (Rice, Tebonnet) [1]; rate 0.1250 kg/ha): 1.0
Preemergence herbicidal rating ABUTH ([2]; rate 0.0620 kg/ha): 0.0
Preemergence herbicidal rating ABUTH ([2]; rate 0.1250 kg/ha): 0.0
Preemergence herbicidal rating ABUTH ([2]; rate 0.2500 kg/ha): 3.0
TRZAWR herbicidal rating ([3]; rate 0.0320 kg/ha): 1.0
TRZAWR herbicidal rating ([3]; rate 0.0620 kg/ha): 1.5
TRZAWR herbicidal rating ([3]; rate 0.1250 kg/ha): 1.5
Preemergence herbicidal rating ZEAMX (ZEAMX (Corn, Field) [4]; rate 0.0620 kg/ha): 0.0
Preemergence herbicidal rating ZEAMX (ZEAMX (Corn, Field) [4]; rate 0.1250 kg/ha): 0.0
Preemergence herbicidal rating ZEAMX (ZEAMX (Corn, Field) [4]; rate 0.2500 kg/ha): 0.0
AMBEL herbicidal rating ([5]; rate 0.0320 kg/ha): 3.0
AMBEL herbicidal rating ([5]; rate 0.0620 kg/ha): 5.0
AMBEL herbicidal rating ([5]; rate 0.1250 kg/ha): 6.0
CASOB herbicidal rating ([6]; rate 0.0320 kg/ha): 4.0
CASOB herbicidal rating ([6]; rate 0.0620 kg/ha): 5.0
CASOB herbicidal rating ([6]; rate 0.1250 kg/ha): 5.0
CHEAL herbicidal rating ([7]; rate 0.0320 kg/ha): 3.0
CHEAL herbicidal rating ([7]; rate 0.0620 kg/ha): 6.0
CHEAL herbicidal rating ([7]; rate 0.1250 kg/ha): 6.0
GALAP herbicidal rating (GALAP (Galium aparine) [8]; rate 0.0320 kg/ha): 2.0
GALAP herbicidal rating (GALAP (Galium aparine) [8]; rate 0.0620 kg/ha): 3.0
GALAP herbicidal rating (GALAP (Galium aparine) [8]; rate 0.1250 kg/ha): 4.0
Preemergence herbicidal rating GLXMA (GLXMA (Soybean); rate 0.0620 kg/ha): 0.0
Preemergence herbicidal rating GLXMA (GLXMA (Soybean); rate 0.1250 kg/ha): 0.0
Preemergence herbicidal rating GLXMA (GLXMA (Soybean); rate 0.2500 kg/ha): 0.0
Preemergence herbicidal rating GALAP (GALAP (Galium aparine) [9]; rate 0.0620 kg/ha): 0.0
Preemergence herbicidal rating GALAP (GALAP (Galium aparine) [9]; rate 0.1250 kg/ha): 0.0
Preemergence herbicidal rating GALAP (GALAP (Galium aparine) [9]; rate 0.2500 kg/ha): 2.0
GLXMAW herbicidal rating ([10]; rate 0.0320 kg/ha): 5.0
GLXMAW herbicidal rating ([10]; rate 0.0620 kg/ha): 5.0
GLXMAW herbicidal rating ([10]; rate 0.1250 kg/ha): 5.5
CYPIR herbicidal rating (CYPIR (Cyperus iria); rate 0.0320 kg/ha): 0.0
CYPIR herbicidal rating (CYPIR (Cyperus iria); rate 0.1250 kg/ha): 8.0
ECHCG herbicidal rating ([11]; rate 0.0320 kg/ha): 2.0
ECHCG herbicidal rating ([11]; rate 0.0620 kg/ha): 3.0
ECHCG herbicidal rating ([11]; rate 0.1250 kg/ha): 4.0
SAGPY herbicidal rating ([12]; rate 0.0320 kg/ha): 0.0
SAGPY herbicidal rating ([12]; rate 0.1250 kg/ha): 0.0
ZEAMX herbicidal rating (ZEAMX (Corn, Field) [13]; rate 0.0320 kg/ha): 2.0
ZEAMX herbicidal rating (ZEAMX (Corn, Field) [13]; rate 0.0620 kg/ha): 2.5
ZEAMX herbicidal rating (ZEAMX (Corn, Field) [13]; rate 0.1250 kg/ha): 3.0
Preemergence herbicidal rating IPOHE ([14]; rate 0.0620 kg/ha): 0.0
Preemergence herbicidal rating IPOHE ([14]; rate 0.1250 kg/ha): 0.0
Preemergence herbicidal rating IPOHE ([14]; rate 0.2500 kg/ha): 4.0
ORYSAT herbicidal rating (transplanted rice tolerance) (ORYSAT (Rice, Tebonnet) [15]; in vivo): 0.0
Preemergence herbicidal rating ECHCG ([16]; rate 0.0620 kg/ha): 0.0
Preemergence herbicidal rating ECHCG ([16]; rate 0.1250 kg/ha): 0.0
Preemergence herbicidal rating ECHCG ([16]; rate 0.2500 kg/ha): 0.0
Preemergence herbicidal rating AMBEL ([17]; rate 0.0620 kg/ha): 0.0
Preemergence herbicidal rating AMBEL ([17]; rate 0.1250 kg/ha): 0.0
Preemergence herbicidal rating AMBEL ([17]; rate 0.2500 kg/ha): 0.0
MOOVA herbicidal rating ([18]; rate 0.0320 kg/ha): 0.0
MOOVA herbicidal rating ([18]; rate 0.1250 kg/ha): 8.0
IPOHE herbicidal rating ([19]; rate 0.0320 kg/ha): 6.0
IPOHE herbicidal rating ([19]; rate 0.0620 kg/ha): 8.0
IPOHE herbicidal rating ([19]; rate 0.1250 kg/ha): 8.0
ABUTH herbicidal rating ([20]; rate 0.0320 kg/ha): 6.0
ABUTH herbicidal rating ([20]; rate 0.0620 kg/ha): 7.0
ABUTH herbicidal rating ([20]; rate 0.1250 kg/ha): 9.0
ECHORC herbicidal rating ([21]; rate 0.0320 kg/ha): 0.0
ECHORC herbicidal rating ([21]; rate 0.1250 kg/ha): 0.0

COC1(c2nsc3ccc(-n4c(=O)cc(C(F)(F)F)n(C)c4=O)cc23)N=C(N(C)C)NC1=O (stereo not shown) [Compound 93, 3-[3-[2-(dimethylamino)-4-methoxy-5-oxo-2-imidazolin-4-yl]-1,2-benzisothiazol-5-yl]-1-methyl-6-(trifluoromethyl)uracil]
ORYSAT herbicidal rating (ORYSAT (Rice, Tebonnet) [1]; rate 0.0320 kg/ha): 4.0
ORYSAT herbicidal rating (ORYSAT (Rice, Tebonnet) [1]; rate 0.0620 kg/ha): 8.0
Preemergence herbicidal rating ABUTH ([2]; rate 0.0620 kg/ha): 9.0
Preemergence herbicidal rating ABUTH ([2]; rate 0.1250 kg/ha): 9.0
Preemergence herbicidal rating ABUTH ([2]; rate 0.2500 kg/ha): 9.0
TRZAWR herbicidal rating ([3]; rate 0.0320 kg/ha): 5.5
TRZAWR herbicidal rating ([3]; rate 0.0620 kg/ha): 7.5
Preemergence herbicidal rating ZEAMX (ZEAMX (Corn, Field) [4]; rate 0.0620 kg/ha): 0.0
Preemergence herbicidal rating ZEAMX (ZEAMX (Corn, Field) [4]; rate 0.1250 kg/ha): 0.0
Preemergence herbicidal rating ZEAMX (ZEAMX (Corn, Field) [4]; rate 0.2500 kg/ha): 0.0
AMBEL herbicidal rating ([5]; rate 0.0320 kg/ha): 9.0
AMBEL herbicidal rating ([5]; rate 0.0620 kg/ha): 9.0
CASOB herbicidal rating ([6]; rate 0.0320 kg/ha): 7.0
CASOB herbicidal rating ([6]; rate 0.0620 kg/ha): 9.0
CHEAL herbicidal rating ([7]; rate 0.0320 kg/ha): 9.0
CHEAL herbicidal rating ([7]; rate 0.0620 kg/ha): 9.0
GALAP herbicidal rating (GALAP (Galium aparine) [8]; rate 0.0320 kg/ha): 9.0
GALAP herbicidal rating (GALAP (Galium aparine) [8]; rate 0.0620 kg/ha): 9.0
Preemergence herbicidal rating GLXMA (GLXMA (Soybean); rate 0.0620 kg/ha): 4.0
Preemergence herbicidal rating GLXMA (GLXMA (Soybean); rate 0.1250 kg/ha): 6.0
Preemergence herbicidal rating GLXMA (GLXMA (Soybean); rate 0.2500 kg/ha): 7.0
GLXMAW herbicidal rating ([10]; rate 0.0320 kg/ha): 9.0
GLXMAW herbicidal rating ([10]; rate 0.0620 kg/ha): 9.0
CYPIR herbicidal rating (CYPIR (Cyperus iria); rate 0.0320 kg/ha): 0.0
CYPIR herbicidal rating (CYPIR (Cyperus iria); rate 0.1250 kg/ha): 9.0
ECHCG herbicidal rating ([11]; rate 0.0320 kg/ha): 9.0
ECHCG herbicidal rating ([11]; rate 0.0620 kg/ha): 9.0
SAGPY herbicidal rating ([12]; rate 0.0320 kg/ha): 0.0
SAGPY herbicidal rating ([12]; rate 0.1250 kg/ha): 9.0
ZEAMX herbicidal rating (ZEAMX (Corn, Field) [13]; rate 0.0320 kg/ha): 5.5
ZEAMX herbicidal rating (ZEAMX (Corn, Field) [13]; rate 0.0620 kg/ha): 5.5
Preemergence herbicidal rating IPOHE ([14]; rate 0.0620 kg/ha): 3.0
Preemergence herbicidal rating IPOHE ([14]; rate 0.1250 kg/ha): 9.0
Preemergence herbicidal rating IPOHE ([14]; rate 0.2500 kg/ha): 9.0
ORYSAT herbicidal rating (transplanted rice tolerance) (ORYSAT (Rice, Tebonnet) [15]; flooded paddy, post-transplant rice, rate 0.1250 kg/ha, rated 3-4 weeks after treatment, 0-9 rating scale): 8.0
Preemergence herbicidal rating ECHCG ([16]; rate 0.0620 kg/ha): 0.0
Preemergence herbicidal rating ECHCG ([16]; rate 0.1250 kg/ha): 0.0
Preemergence herbicidal rating ECHCG ([16]; rate 0.2500 kg/ha): 4.0
Preemergence herbicidal rating AMBEL ([17]; rate 0.0620 kg/ha): 4.0
Preemergence herbicidal rating AMBEL ([17]; rate 0.1250 kg/ha): 7.0
Preemergence herbicidal rating AMBEL ([17]; rate 0.2500 kg/ha): 9.0
MOOVA herbicidal rating ([18]; rate 0.0320 kg/ha): 0.0
MOOVA herbicidal rating ([18]; rate 0.1250 kg/ha): 9.0
IPOHE herbicidal rating ([19]; rate 0.0320 kg/ha): 9.0
IPOHE herbicidal rating ([19]; rate 0.0620 kg/ha): 9.0
ABUTH herbicidal rating ([20]; rate 0.0320 kg/ha): 9.0
ABUTH herbicidal rating ([20]; rate 0.0620 kg/ha): 9.0
ECHORC herbicidal rating ([21]; rate 0.0320 kg/ha): 0.0
ECHORC herbicidal rating ([21]; rate 0.1250 kg/ha): 6.0

Reference: patent publication US6706663B2, “Herbicidal 3-heterocyclic substituted benzisothiazole and benzisoxazole compounds” (Wyeth, priority 2000, dated 2004)
